Earlier results in patent US20200077661A1, “METHOD AND "IDEPS" COMPOSITION FOR DESTROYING MICROORGANISMS IN A SESSILE STATE” (IDEPS GMBH, priority 2016, published 2020).

System: coagulase-negative staphylococci

For varnerin, the “destruction of the exopolymeric matrix” value (16-128 μg/ml varnerin for 10 μg of biofilm, incubation at 37° C. for 24 hours) is given as “partial destruction”, the bacterial cells die (16-128 μg/ml varnerin for 10 μg of biofilm, incubation at 37° C. for 24 hours, biofilm formed within 24 hours) is given as “up to 30%” and the “bacteria in the young biofilm not eliminated” value (young biofilm (24 hours old)) is given as “up to 70%”.
